The structures appear in SMILES notation. Converted amounts (≈) assume the structure as drawn. Like-named read-outs stand apart in the source and are kept apart here. Where only a bound is given, the exact number is not on record here.

One assay relates to Mtb H37Rv. As to the kind of experiment: MIC by broth microdilution against Mtb H37Rv. Conditions: incubation 5 days; for MIC50 Mtb H37Rv: first value of cell MIC50/MIC90; for MIC90: second value of cell MIC50/MIC90, read-out: MIC90 Mtb H37Rv. Format: cell-based, Mycobacterium tuberculosis.
The next assay has as its system Mab abscessus ATCC 19977. As to the kind of experiment: MIC against Mab abscessus ATCC 19977. It is filed as cell-based, Mycobacterium abscessus subsp. abscessus. The conditions noted are these: for MIC90: read-out: MIC90 Mab abscessus ATCC 19977; for MIC50 Mab abscessus ATCC 19977: 3 days.
For assay [1], the system named is M. bovis BCG. Format: cell-based, Mycobacterium bovis BCG.
Another assay relates to clinical isolates of Mab. As to the kind of experiment: MIC50 against Mab clinical isolates. It is filed as cell-based, Mycobacterium abscessus. The conditions noted are these: range over isolates.
The subject of assay [2] is M. bovis BCG. As to the kind of experiment: microbe, parasite or virus in culture. It is filed as cell-based, Mycobacterium bovis BCG.
For assay [3], the system named is Mab massiliense CCUG 48898-T. The assay can be described thus: MIC against Mab massiliense CCUG 48898-T. Format: cell-based, Mycobacterium abscessus subsp. massiliense. Conditions: for MIC50 Mab massiliense CCUG 48898-T: 3 days.
Another assay has as its system HepG2. As to the kind of experiment: Cytotoxicity in HepG2 cells. Format: cell-based, human. Conditions: 48 h, growth suppressed by 50% vs untreated. On the procedure: (§1) To each well in a 96-well plate, 50,000 cells in 100 μL media were seeded. Vero E6 and HepG2 cells were incubated overnight in DMEM for cell adherence at 37°C and 5% CO2. The media was removed from the wells and 100 μL solution made up of fresh DMEM media (99 μL) and the test compound (1 μL from a DMSO stock solution that was […] more concentrated than the final concentration in the well) was then added to each well. DMSO content of each well was consistently kept at 0.5 %v/v. Treated plates were incubated for 48 h (5% CO2, 37°C), after which 10 μL of Celltitre 96 Aqueous One Solution was added to each well, without removal of media, and incubated for a further 3 h. Subsequently, absorbance readings were taken at 490 nm on a Tecan GENios Microplate Reader.
(§2) Cell viability was determined from the expression: Cellviability(%)={[Absorbance(cells+cpd)−Absorbance(cpd)]/[Absorbance(cells+vc)−Absorbance(vc)]}×100% where Absorbance (cells + cpd) = absorbance of wells containing cells and test compound in vehicle (media +0.5% DMSO); Absorbance (cpd) = absorbance of wells containing test compound in vehicle without cells (compound control); Absorbance (cells + vc) = absorbance of wells containing cells in vehicle (vc) only (untreated cells); Absorbance (vc) = absorbance of wells containing vehicle without cells (vehicle control). The percentage viability readings were plotted against log(concentration) on GraphPad Prism (Version 7.0, San Diego, CA) to give a sigmoidal curve, from which IC50, defined as the concentration of the compound that reduced cell viability by 50%, was obtained. At least 3 separate determinations were carried out.

The subject of assay [4] is Mab bolletii CCUG 50184-T. The assay can be described thus: MIC against Mab bolletii CCUG 50184-T. Conditions: for MIC50 Mab bolletii CCUG 50184-T: 3 days. It is filed as cell-based, Mycobacterium abscessus subsp. bolletii.
A further assay has as its system Vero E6. The assay can be described thus: Cytotoxicity in Vero E6 cells. It is filed as cell-based, African green monkey. The conditions noted are these: 48 h, growth suppressed by 50% vs untreated. On the procedure:
as §1, §2

Where [5] appears, read: 7H9 medium (first value of cell).
The mark [6] stands for this setting: CA-MHB medium (second value of cell).

In general, IC50 refers to the concentration at which inhibition is half-maximal. Read a low IC50 as higher potency. As for `COc1ccc(CCN(C)CCCC(C#N)(C/C=C(\C)CCC=C(C)C)c2ccc(OC)c(OC)c2)cc1OC` (racemic) [PhA3], the “MIC50 Mtb H37Rv” value against Mtb H37Rv came to 19 µM (≈ 10.4 µg/mL). For the same molecule, the MIC90 came out at 42 µM (≈ 23 µg/mL) in the assay on Mtb H37Rv; 104 µM (≈ 57.1 µg/mL) with Mab abscessus ATCC 19977 (7H9 broth (first value)); 31 µM (≈ 17 µg/mL) in the assay on Mab abscessus ATCC 19977 (camH broth (second value)); 96 µM (≈ 52.7 µg/mL) in assay [3] (7H9 broth (first value)); 56 µM (≈ 30.7 µg/mL) in assay [3] (camH broth (second value)); 98 µM (≈ 53.8 µg/mL) in [4] (7H9 broth (first value)). For the same molecule, the MIC90 in [4] (camH broth (second value)) turned out to be 26 µM (≈ 14.3 µg/mL). Also, the “MIC50 Mab abscessus ATCC 19977” value was 47 µM (≈ 25.8 µg/mL) in the assay with Mab abscessus ATCC 19977 (setting [5]) and 17 µM (≈ 9.33 µg/mL) in the assay with Mab abscessus ATCC 19977 (setting [6]). In addition, the “CFUs above the detection limit” value with M. bovis BCG [1] was 10–100 times. In the assay with clinical isolates of Mab, the “MIC50 seven Mab clinical isolates” value was 12 to 21 µg/mL. Besides, in the assay with M. bovis BCG [2], the MIC50 worked out at 11 µM (≈ 6.04 µg/mL). Besides, the “MIC50 BCG With Glycerol” value against M. bovis BCG [2] stood at 11 µM (≈ 6.04 µg/mL). In addition, the “MIC50 BCG Without Glycerol” value in the assay on M. bovis BCG [2] was 18 µM (≈ 9.88 µg/mL). Also, the “MIC90 (Table S1)” value in the assay on M. bovis BCG [2] was 22 µM (≈ 12.1 µg/mL). Further, the “MIC50 Mab massiliense CCUG 48898-T” value in assay [3] (setting [5]) came out at 42 µM (≈ 23 µg/mL); in assay [3] (setting [6]), 10 µM (≈ 5.49 µg/mL). In addition, the IC50 is 32 µM in the assay on HepG2 and 27 µM in the assay with Vero E6. Moreover, the figures for the “MIC50 Mab bolletii CCUG 50184-T” value in [4] (setting [5]) and in [4] (setting [6]) were 47 µM (≈ 25.8 µg/mL) and 13 µM (≈ 7.13 µg/mL), respectively.
Turning to `COc1ccc(CCN(C)CCCC(C#N)(c2ccc(OC)c(OC)c2)C2CCCCCCC2)cc1OC` (stereo not drawn) [PhA4], in the assay with M. bovis BCG [2], the MIC50 is 23 µM (≈ 12 µg/mL), the MIC90 was 44 µM (≈ 23 µg/mL) and the “MIC90 (Table S1)” value was found to be 44 µM (≈ 23 µg/mL).
`COc1ccc(CCN(C)CCCC(C#N)(Cc2ccc(Br)cc2)c2ccc(OC)c(OC)c2)cc1OC` (stereo not drawn) [PhA5]: in the assay on M. bovis BCG [2], the MIC50 amounted to 17 µM (≈ 9.89 µg/mL), the MIC90 came out at 43 µM (≈ 25 µg/mL) and the “MIC90 (Table S1)” value is reported as 43 µM (≈ 25 µg/mL).
Take `COc1ccc(CCN(C)CCCC(C#N)(Cc2cccc(Cl)c2)c2ccc(OC)c(OC)c2)cc1OC` (stereo not drawn) [PhA6]: in the assay on M. bovis BCG [2], the MIC50 turned out to be 17 µM (≈ 9.13 µg/mL), the MIC90 worked out at 45 µM (≈ 24.2 µg/mL) and the “MIC90 (Table S1)” value is 45 µM (≈ 24.2 µg/mL).
In the case of `COc1ccc(CCN(C)CCCC(C#N)(c2ccc(Cl)c(Cl)c2)C(C)C)cc1OC` (stereo not drawn) [PhA7], in the assay on M. bovis BCG [2], the MIC50 was 27 µM (≈ 12.5 µg/mL), the MIC90 amounted to 47 µM (≈ 21.8 µg/mL) and the “MIC90 (Table S1)” value was determined as 47 µM (≈ 21.8 µg/mL).
With `COc1ccc(C(C#N)(CCCN(C)CCc2ccc(Cl)c(Cl)c2)C(C)C)cc1OC` (stereo not drawn) [PhA8], in the assay with M. bovis BCG [2], the MIC50 turned out to be 26 µM (≈ 12 µg/mL), the MIC90 stood at 45 µM (≈ 20.9 µg/mL) and the “MIC90 (Table S1)” value was 45 µM (≈ 20.9 µg/mL).
For the molecule `COc1ccc(CCN(C)CCCCCCCCCCCCC(C#N)(c2ccc(OC)c(OC)c2)C(C)C)cc1OC` (stereo not drawn) [PhA10], in the assay on M. bovis BCG [2], the MIC50 was determined as 18 µM (≈ 10.5 µg/mL), the MIC90 was found to be 32 µM (≈ 18.6 µg/mL) and the “MIC90 (Table S1)” value is 32 µM (≈ 18.6 µg/mL).
In the case of `COc1ccc(CCN(C)CCCC(C#N)(CCC2CCCCC2)c2ccc(Cl)c(Cl)c2)cc1OC` (stereo not drawn) [PhA11], in the assay on Mtb H37Rv, the “MIC50 Mtb H37Rv” value is 19/40 μM. Also, the “MIC90 Mtb H37Rv” value against Mtb H37Rv is 19/40 μM. The MIC90 was above 250 µM with Mab abscessus ATCC 19977 (7H9 broth (first value)); above 250 µM with Mab abscessus ATCC 19977 (camH broth (second value)); 25 µM (≈ 13.3 µg/mL) in the assay with M. bovis BCG [2]; above 250 µM in assay [3] (7H9 broth (first value)); above 250 µM in assay [3] (camH broth (second value)); above 250 µM in [4] (7H9 broth (first value)). Moreover, the MIC90 in [4] (camH broth (second value)) is above 250 µM. In addition, the “MIC50 Mab abscessus ATCC 19977” value against Mab abscessus ATCC 19977 (setting [5]) was above 250 µM; in the assay on Mab abscessus ATCC 19977 (setting [6]), 175 µM (≈ 93 µg/mL). In addition, the MIC50 with M. bovis BCG [2] is 14 µM (≈ 7.44 µg/mL). The “MIC50 BCG Without Glycerol” value against M. bovis BCG [2] is 46 µM (≈ 24.5 µg/mL). The “MIC90 (Table S1)” value against M. bovis BCG [2] is listed as 25 µM (≈ 13.3 µg/mL). Besides, the “MIC90 BCG” value with M. bovis BCG [2] was determined as 13 µg/mL (≈ 24.5 µM). Besides, the entries for the “MIC50 Mab massiliense CCUG 48898-T” value in [3] (setting [5]) and in assay [3] (setting [6]) were above 250 µM and 21 µM (≈ 11.2 µg/mL), respectively. The values for the half-inhibitory concentration (IC50) with HepG2 and in the assay with Vero E6 were 44 µM and 57 µM, respectively. Also, the “MIC50 Mab bolletii CCUG 50184-T” value in assay [4] (setting [5]) is above 250 µM; in assay [4] (setting [6]) it was 160 µM (≈ 85.1 µg/mL).
Turning to `COc1ccc(CCN(C)CCCC(C#N)(CC=C(C)CCC=C(C)C)c2ccc(Cl)c(Cl)c2)cc1OC` (stereo not drawn) [PhA13], the “MIC50 Mtb H37Rv” value with Mtb H37Rv stood at 21 µM (≈ 11.7 µg/mL). For the same molecule, the MIC90 with Mtb H37Rv was 45 µM (≈ 25.1 µg/mL); in the assay with Mab abscessus ATCC 19977 (7H9 broth (first value)), above 250 µM; in the assay with Mab abscessus ATCC 19977 (camH broth (second value)), above 250 µM; against M. bovis BCG [2], 23 µM (≈ 12.8 µg/mL); in [3] (7H9 broth (first value)), above 250 µM; in [3] (camH broth (second value)), above 250 µM. Further, the MIC90 in [4] (7H9 broth (first value)) and in [4] (camH broth (second value)) was above 250 µM throughout. In addition, the “MIC50 Mab abscessus ATCC 19977” value in the assay with Mab abscessus ATCC 19977 (setting [5]) and in the assay with Mab abscessus ATCC 19977 (setting [6]) was >250/250 uM throughout. In the assay on M. bovis BCG [2], this molecule returned an MIC50 of 12 µM (≈ 6.69 µg/mL). Moreover, in the assay on M. bovis BCG [2], the “MIC50 BCG With Glycerol” value was 12 µM (≈ 6.69 µg/mL). Further, in the assay on M. bovis BCG [2], the “MIC50 BCG Without Glycerol” value was 30 µM (≈ 16.7 µg/mL). The “MIC90 (Table S1)” value with M. bovis BCG [2] is 23 µM (≈ 12.8 µg/mL). Besides, the “MIC90 BCG” value against M. bovis BCG [2] was determined as 13 µg/mL (≈ 23.3 µM). For the same molecule, the “MIC50 Mab massiliense CCUG 48898-T” value in assay [3] (setting [5]) was above 250 µM; in assay [3] (setting [6]) it was 23 µM (≈ 12.8 µg/mL). Also, the IC50 in the assay on HepG2 was 42 µM; with Vero E6, 60 µM.
`COc1ccc(CCN(C)CCCC(C#N)(c2ccc(Cl)cc2)C2CCCCC2)cc1OC` (stereo not drawn) [PhA14]: in the assay with M. bovis BCG [2], the MIC50 was 19 µM (≈ 8.91 µg/mL), the MIC90 was determined as 35 µM (≈ 16.4 µg/mL) and the “MIC90 (Table S1)” value is given as 35 µM (≈ 16.4 µg/mL).
